Reference: patent US20140142140A1, “PHARMACEUTICAL COMPOSITION FOR NEUROLOGICAL DISORDERS” (priority 2011, published 2014)
Counter-ions that a name gives are not always drawn. Like-named read-outs stand apart in the source and are kept apart here.

Legend:
[1] = test system: mood stabilisation or epileptic symptoms or events; settings: cited from earlier work
[2] = test system: patients with Alzheimer's type dementia; test: Case reports, Mild Cognitive Impairment (MCI) and Dementia (Example 1); assay type: in vivo, human; settings: Patient 1B, 7 year history of Alzheimer's type dementia
From the text: Patient 1A was an elderly person with history of impairment of cognitive function. Presumptive diagnosis of possible dementia of Alzheimers type.
Patient 1B was an elderly retired person with a 7 year history of Alzheimer's type dementia treated with the cholinesterase inhibitor Donepezil. […] Their cognitive function has gradually deteriorated since this time. […] Their reading was more fluent being better able to follow the meaning of the text. There was also improvement in their Stroop Test particularly in part three, the more cognitively demanding where their accuracy improved from 50 to 90%.

[3] = test system: patients with autism / ASD / communication disorder; test: Case reports, Autism and other Pervasive Development Disorders (Example 6); assay type: in vivo, human
From the text: Patient 6A: Adult, diagnosed in childhood with autism and ADHD. A long history of behavioural disturbance with frequent episodes of violence despite treatment with high-dose antipsychotic medication. […] The high-dose antipsychotic medication has been reduced without any associated loss of recent benefit. […] A history of behavioural disturbance and educational impairment. […] Patient 6C was an adult, diagnosed in childhood with autism and ADHD with a history of behavioural disturbance and educational impairment. […] Patient 6D: Adult, diagnosed in childhood with autism, ADHD and antisocial personality traits. […] Patient C's conversation became more appropriate and consistent together with reported improvements in significant relationships. […] Patient 6E was an adult, diagnosed with communication disorder and major depression. […] Patient 6F was an adult with ASD. […] The patient's conversation became more appropriate and consistent and improvements in significant relationships were reported. A reduction in the reliance on alcohol to alleviate anxiety in social situations was observed. […] Sodium valproate was withdrawn and improvement was noted. […] Patient 6G was as adult, diagnosed in childhood with ASD. […] Sodium valproate was withdrawn. […] This has also been associated with improvements in reading and verbal understanding. These benefits have been sustained in some situations for three years. Although difficult to be objective, there seems to be good evidence of ongoing improvement. […] Improvements in coordination, in fine and gross motor control have been reported and improvement in gait which frequently is a significant issue for individuals with autistic disorders.

Structure (SMILES) | Minimum typical dose/day effective for mood stabilisation or treatment of epileptic symptoms or events ([1]; per day) | other results
CCC1(c2ccc(N)cc2)CCC(=O)NC1=O (stereo not shown) [Aminoglutethimide] | 125 mg | 
CCC1(c2ccccc2)C(=O)NC(=O)NC1=O.CNC(C)CC1CCCCC1 [Barbexaclone] | 200 mg in divided doses | 
CCC[C@@H]1CC(=O)N([C@@H](CC)C(N)=O)C1 [Brivaracetam] | 100 mg | 
NC(=O)N1c2ccccc2C=Cc2ccccc21 [Carbamazepine] | 400 mg | 
CN1C(=O)CC(=O)N(c2ccccc2)c2cc(Cl)ccc21 [Clobazam] |  | Minimum typical dose/day effective for mood stabilisation or treatment of epileptic symptoms or events ([1]; in vivo): 5 mg/kg daily
O=C1CN=C(c2ccccc2Cl)c2cc([N+](=O)[O-])ccc2N1 [Clonazepam] | 1 mg | 
COc1cc2c(cc1OC)C(=O)C(CC1CCN(Cc3ccccc3)CC1)C2 (stereo not shown) [Donepezil] |  | subjective cognitive functioning and ADAS-cog [2]: significant improvement in their subjective cognitive functioning
CCN1C(=O)OC(C)(C)C1=O [Ethadione] | 1000 mg | 
CCC1(C)CC(=O)NC1=O (stereo not shown) [Ethosuximide] | 1000 mg | 
CCN1C(=O)NC(c2ccccc2)C1=O (stereo not shown) [Ethotoin] | 1000 mg | 
NC(=O)OCC(COC(N)=O)c1ccccc1 [Felbamate] | 1200 mg | 
O=C1NC(c2ccccc2)(c2ccccc2)C(=O)N1COP(=O)(O)O [Fosphenytoin Sodium] | 10 mg/kg | 
NCC1(CC(=O)O)CCCCC1 [Gabapentin, 2-[1-(aminomethyl)cyclohexyl]acetic acid] | 900 mg | 
COC[C@@H](NC(C)=O)C(=O)NCc1ccccc1 [Lacosamide] | 200 mg | 
Nc1nnc(-c2cccc(Cl)c2Cl)c(N)n1 [Lamotrigine, 3,5-diamino-6-(2,3-dichlorophenyl)-1,2,4-triazine] | 100 mg | 
CC[C@@H](C(N)=O)N1CCCC1=O [Levetiracetam] | 1000 mg | 
COC1=CC(=O)OC1C(O)c1ccccc1Cl (stereo not shown) [Losigamone] | 1500 mg | 
CCC1(c2ccccc2)NC(=O)N(C)C1=O (stereo not shown) [Mephenytoin] | 200 mg | 

Structure (SMILES) | Minimum typical dose/day effective for mood stabilisation or treatment of epileptic symptoms or events ([1]; per day) | other results
CCC1(c2ccccc2)NC(=O)N(C)C1=O (stereo not shown) [Methoin] | 1000 mg | 
CN1C(=O)CC(C)(c2ccccc2)C1=O (stereo not shown) [Methsuximide] | 300 mg | 
NC(=O)N1c2ccccc2CC(=O)c2ccccc21 [Oxcarbazepine] | 600 mg | 
CCC1(C)OC(=O)N(C)C1=O (stereo not shown) [Paramethadione] | 300 mg | 
N#Cc1ccccc1-c1cc(-c2ccccn2)cn(-c2ccccc2)c1=O [Perampanel] | 2 mg | 
NC(=O)NC(=O)Cc1ccccc1 [Phenacemide] | 500 mg | 
CCC(C(=O)NC(N)=O)c1ccccc1 (stereo not shown) [Pheneturide] | 600 mg | 
CN1C(=O)CC(c2ccccc2)C1=O (stereo not shown) [Phensuximide] | 1000 mg | 
CC(C)C[C@H](CN)CC(=O)O [Pregabalin, (S)-3-(aminomethyl)-5-methylhexanoic acid] | 300 mg | 
CCC1(c2ccccc2)C(=O)NCNC1=O [Primidone] | 750 mg | 
NS(=O)(=O)c1ccc(N2CCCCS2(=O)=O)cc1 [Sultiame] | 200 mg | 
Cc1ccsc1C(=CCCN1CCC[C@@H](C(=O)O)C1)c1sccc1C [Tiagabine Hydrochloride] | 30 mg | 
CC1(C)O[C@@H]2[C@@H](CO[C@@]3(COS(N)(=O)=O)OC(C)(C)O[C@@H]23)O1 [Topiramate, 2,3:4,5-Bis-O-(1-methylethylidene)-beta-D-fructopyranose sulfamate] | 100 mg | 
CN1C(=O)OC(C)(C)C1=O [Trimethadione] | 900 mg | 
C=CC(N)CCC(=O)O (stereo not shown) [Vigabatrin] | 1000 mg | 
NS(=O)(=O)Cc1noc2ccccc12 [Zonisamide] | 200 mg | 
CCCC(CCC)C(=O)O.[Na] [sodium valproate, sodium di-n-propylacetic acid] |  | behaviour, verbal and non-verbal communication ([3]; Patient 6, ASD, 50 mg daily): significant improvement in behaviour, verbal and non-verbal communication; reintroduction at lower dose ([3]; Patient 6, 25 mg daily): successfully reintroduced; adverse effects within three days ([3]; Patient 6, 50 mg daily): increasing cognitive slowing, general malaise and tiredness; communication ([3]; Patient 6E, communication disorder and major depression, 50 mg): significant improvement in communication; communication ([3]; Patient 6E, 25 mg daily): sustained improvement in the ability to communicate with less effort; benefits when medication ceased ([3]; Patient 6E, medication ceased): initial benefits were lost; communication, eye contact, motor tics, social engagement ([3]; Patient 6G, 25 mg on alternate days): sustained improvement in the communication, eye contact during dialogue, reduction in motor tics and greater social engagement and independently motivated activity; communication and other symptoms of ASD ([3]; Patient 6G, 50 mg daily): improvement in communication and other symptoms of ASD; side-effects ([3]; Patient 6G, 50 mg daily): low mood and irritability
